Reference: US9486417B2, “Transdermal therapeutic system for administering lipophilic and/or sparingly skin-permeable active substances” (LTS Lohmann Therapie-Systeme AG, priority 2005, dated 2016)
Values after ≈ are worked out from the molar mass of the structure shown. Read-outs that look alike come from different tables or passages of the source.

Assays:
[1] = cited from earlier work; for half-life: oral administration
[2] = cited from earlier work
[3] = pH value of 7.4; cited from earlier work
[4] = format: in vitro ADME
Procedure: The first preliminary tests carried out in accordance with the present invention with a view to developing a matrix transdermal therapeutic system for administration of vinpocetine led to transdermal therapeutic systems (TTSs) by means of which a skin flux (permeation rate in steady state) of 0.91 μg/cm^2×h could be achieved. In order to adjust the therapeutically required concentration of 2 to 3 ng/ml of vinpocetine in a patient's plasma, a transdermal therapeutic system that is designed for an application period of 24 hours would have to have an area of about 120 cm^2. For reasons of patient acceptance, however, the surface area of a transdermal therapeutic system should be kept as small as possible and, if possible, should not exceed 40 cm^2, preferably 20 cm^2.

[5] = 1% suspension of vinpocetine in ethanol and 1-menthol applied directly to human full-thickness skin in vitro; cited from earlier work

SMILES | bioavailability ([1]; gastrointestinal absorption, not metabolised presystemically) | therapeutically required / effective plasma level ([1]; patient's plasma) | water solubility ([2]; base, 22° C.) [µg/mL] | solubility in ethanol or DMSO ([2]; ethanol or DMSO) | proportion present in cationic form [3] | half-life [1] | water-solubility ([2]; base, 22° C.) [µg/mL] | time to enter the blood stream after administration ([1]; oral, fasting or with meals) | time until excreted by the body almost completely ([1]; oral) | water-solubility ([2]; room temperature) [µg/mL] | skin flux (permeation rate in steady state) [4] [μg/cm^2×h] | permeation rate [5] [μg/cm^2×h]
COc1nc(C)nc(Cl)c1NC1=NCCN1 [moxonidine, 4-chloro-N-(4,5-dihydro-1H-imidazol-2-yl)-6-methoxy-2-methyl-5-pyrimidinamine] | about 90% | around 5.4 ng/ml | 1360 (≈ 5.63 mM) | up to 100 mM | about 50% | – | – | – | – | – | – | –
CCCN1C[C@H](CSC)C[C@@H]2c3cccc4[nH]cc(c34)C[C@H]21 [pergolide, D-6-n-propyl-8 β-methyl-mercaptomethyl-ergoline] | – | – | – | – | – | 27 h | 0.021 | – | – | – | – | –
CCOC(=O)C1=C[C@]2(CC)CCCN3CCc4c(n1c1ccccc41)[C@@H]32 [vinpocetine, ethyl apovincamin-22-oate] | – | – | – | – | – | one to two | – | about half an hour | eight | 0.02 | 0.91 | 6.45
